From US4610983A, “N-acyl acidic amino acid diamide derivative, a salt thereof, and an anti-ulcer agent containing the same” (Toyama Chemical Co., Ltd., priority 1984, dated 1986)

Tested on: Wistar strain rats
Assay: Anti-ulcer activity, Indomethacin-induced ulcers, oral (ED50)
Format: in vivo, Wistar strain rats (male)
Details: Rattus norvegicus, 1 h before Indomethacin 25 mg/kg p.o., ulcer lengths after 5 h, dose giving 50% of control
Source text: On the other hand, Indomethacin alone was orally administered to a control group at the same dose.

Row | Compound | ED50 [mg/kg]
1 | CCCN(CCC)C(=O)C(CCC(=O)NC)NC(=O)/C=C/c1ccco1 (racemic) [Test Compound 1, DL-2-[β-(2-furyl)acrylamido]-N^5-methyl-N^1,N^1-di(n-propyl)pentane-1,5-diamide] | 6.6
2 | CCCN(CCC)C(=O)C(CCC(=O)N(C)C)NC(=O)/C=C/c1ccco1 (racemic) [Test Compound 2, DL-2-[β-(2-furyl)acrylamido]-N^5,N^5-dimethyl-N^1,N^1-di(n-propyl)-pentane-1,5-diamide] | 9
3 | CN(C)C(=O)CCC(NC(=O)/C=C/c1ccco1)C(=O)N(C)C (racemic) [Test Compound 3, DL-2-[β-(2-furyl)acrylamido]-N^1,N^1,N^5,N^5-tetramethyl-pentane-1,5-diamide] | 10.8
4 | CCCN(CCC)C(=O)C(CCC(=O)O)NC(=O)c1ccccc1 (stereo not shown) [Proglumide, reference compound] | 800

Tested on: Wistar strain rats
Assay: Anti-ulcer activity, Indomethacin-induced ulcers, intraperitoneal (inhibition percentage)
Format: in vivo, Wistar strain rats (male)
Details: 50 mg/kg intraperitoneal; 1 h before Indomethacin 25 mg/kg p.o.; ulcer lengths after 5 h
Protocol: On the other hand, Indomethacin alone was orally administered to a control group at the same dose. After 5 hours, the stomach of each rat was removed, and then the sum total of the lengths of the ulcers was measured and compared with that measured for the control group, whereby the inhibition percentage was calculated.

Row | Compound | Inhibition percentage [%]
5 | DL-N^1,N^5-bis(3-acetoxypropyl)-2-[β-(2-furyl)acrylamido]pentane-1,5-diamide [Test Compound 19] | 40
6 | DL-N^5 -(3-acetoxypropyl)-2-[β-(2-furyl)acrylamido]-N^1 -n-propylpentane-1,5-diamide [Test Compound 20] | 52

Same assay, conditions: Rattus norvegicus, ip; 50 mg/kg intraperitoneal; 1 h before Indomethacin 25 mg/kg p.o.; ulcer lengths after 5 h

Row | Compound | inhibition in vivo at 50 mg/kg [%]
7 | CCCN(CCC)C(=O)C(CCC(=O)O)NC(=O)c1ccccc1 (stereo not shown) [Proglumide, reference compound] | 0
8 | CCCN(CCC)C(=O)[C@H](CCC(=O)N(C)C)NC(=O)C1CCC(CN)CC1 (stereo partly shown) [compound 9] | 59
9 | CCCN(CCC)C(=O)[C@H](CCC(=O)N(C)C)NC(=O)CN1CCN(C)CC1 [compound 10] | 55
10 | CCCN(CCC)C(=O)[C@H](CCC(=O)N(C)C)NC(=O)CCN1CCN(C)CC1 [compound 11] | 41
11 | CCCN(CCC)C(=O)[C@H](CCC(=O)N(C)C)NC(=O)CCCN1CCN(C)CC1 [compound 12] | 47
12 | CCCN(CCC)C(=O)[C@H](CCC(=O)N(C)C)NC(=O)CCCN1CCN(CC)CC1 [compound 13] | 55
13 | CCCN(CCC)C(=O)[C@H](CCC(=O)N(C)C)NC(=O)CCCN1CCN(c2ccccc2)CC1 [compound 14] | 52
14 | CCCN(CCC)C(=O)[C@H](CCC(=O)N(C)C)NC(=O)CCCN1CCC(NC(=O)OCc2ccccc2)CC1 [compound 15] | 51
15 | CCCN(CCC)C(=O)[C@H](CCC(=O)N(C)C)NC(=O)/C=C/C(=O)c1ccc(OC)c(OC)c1 [compound 16] | 59
16 | CCCCNC(=O)CCC(NC(=O)/C=C/c1ccco1)C(=O)NCCCC (stereo not shown) [compound 17] | 32.1
17 | CC(C)CNC(=O)CCC(NC(=O)/C=C/c1ccco1)C(=O)NCC(C)C (stereo not shown) [compound 18] | 37.9
18 | CC(=O)OCCCNC(=O)CCC(NC(=O)/C=C/c1ccco1)C(=O)NCCCOC(C)=O (stereo not shown) [compound 19] | 53
19 | CCCNC(=O)C(CCC(=O)NCCCOC(C)=O)NC(=O)/C=C/c1ccco1 (stereo not shown) [compound 20] | 53.5
20 | CCCNC(=O)C(CCC(N)=O)NC(=O)/C=C/c1ccco1 (stereo not shown) [compound 21] | 70.9
21 | O=C(/C=C/c1ccco1)NC(CCC(=O)NCCCl)C(=O)NCCCl (stereo not shown) [compound 22] | 56
22 | CC(C)NC(=O)CCC(NC(=O)/C=C/c1ccco1)C(=O)NC(C)C (stereo not shown) [compound 23] | 52

Tested on: not listed separately
Assay: Acute toxicity, intraperitoneal
Details: mouse, in vivo, ip
Protocol: Each of the compounds of the Test Compound Nos. 2, 3, 4, 5, 6, 17, 23, 30 and 31 was intraperitoneally administered to ddY strain mice (.male., body wt. 23±2 g, 10 mice per group), and the LD50 values were measured to find that all of them were 600 mg/kg or more.

Row | Compound | LD50 [mg/kg]
23 | CCCN(CCC)C(=O)C(CCC(=O)N(C)C)NC(=O)/C=C/c1cc2ccccc2o1 (racemic) [Test Compound 5, DL-2-[β-(2-benzofuryl)acrylamido]-N^5,N^5-dimethyl-N^1,N^1-di(n-propyl)-pentane-1,5-diamide] | ≥ 600

Same assay, conditions: mouse, in vivo, ip; intraperitoneal, ddY male mice

Row | Compound | LD50 [mg/kg]
24 | CCCN(CCC)C(=O)C(CCC(=O)N(C)C)NC(=O)/C=C/c1ccco1 (racemic) [Test Compound 2, DL-2-[β-(2-furyl)acrylamido]-N^5,N^5-dimethyl-N^1,N^1-di(n-propyl)-pentane-1,5-diamide] | ≥ 600
25 | CN(C)C(=O)CCC(NC(=O)/C=C/c1ccco1)C(=O)N(C)C (racemic) [Test Compound 3, DL-2-[β-(2-furyl)acrylamido]-N^1,N^1,N^5,N^5-tetramethyl-pentane-1,5-diamide] | ≥ 600
26 | CN(C)C(=O)CCC(NC(=O)/C=C/c1cc2ccccc2o1)C(=O)N(C)C (racemic) [Test Compound 4] | ≥ 600
27 | CN(C)C(=O)CCC(NC(=O)/C=C/c1cc2ccccc2o1)C(=O)N1CCCCC1 (racemic) [Test Compound 6] | ≥ 600
28 | CCCCNC(=O)CCC(NC(=O)/C=C/c1ccco1)C(=O)NCCCC (stereo not shown) [compound 17] | ≥ 600
29 | CC(C)NC(=O)CCC(NC(=O)/C=C/c1ccco1)C(=O)NC(C)C (stereo not shown) [compound 23] | ≥ 600
30 | CCCN(CCC)C(=O)CCC(NC(=O)/C=C/c1ccco1)C(=O)N(CCC)CCC (stereo not shown) [compound 30] | ≥ 600
31 | CCCCN(CCCC)C(=O)CCC(NC(=O)/C=C/c1ccco1)C(=O)N(CCCC)CCCC (stereo not shown) [compound 31] | ≥ 600
